# Calls of active or inactive are those of the source.
# Key:
# [1] = Shn3 3'UTR reporter inhibitors, dose response, cell-based, Clone20 osteoblasts, firefly luciferase, cherry-picked (AID 624132); type: functional;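 note: firefly luciferase luminescence from reporter carrying the Shn3 3'UTR in osteoblasts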
# [2] = HepG2 cell cytotoxicity, dose response, cytotoxicity control for Shn3 inhibitor project, CellTiter-Glo, cherry-picked (AID 624134); type: functional, cell-based
# [3] = target: Genome polyprotein (dengue virus type 2, UniProt P29990); assay: Dengue-2 NS5 methyltransferase inhibitors, primary screen, biochemical, confirmation dose response (AID 588689); type: functional
# Genome polyprotein, sequence (P29990 2492-3391 limits assumed): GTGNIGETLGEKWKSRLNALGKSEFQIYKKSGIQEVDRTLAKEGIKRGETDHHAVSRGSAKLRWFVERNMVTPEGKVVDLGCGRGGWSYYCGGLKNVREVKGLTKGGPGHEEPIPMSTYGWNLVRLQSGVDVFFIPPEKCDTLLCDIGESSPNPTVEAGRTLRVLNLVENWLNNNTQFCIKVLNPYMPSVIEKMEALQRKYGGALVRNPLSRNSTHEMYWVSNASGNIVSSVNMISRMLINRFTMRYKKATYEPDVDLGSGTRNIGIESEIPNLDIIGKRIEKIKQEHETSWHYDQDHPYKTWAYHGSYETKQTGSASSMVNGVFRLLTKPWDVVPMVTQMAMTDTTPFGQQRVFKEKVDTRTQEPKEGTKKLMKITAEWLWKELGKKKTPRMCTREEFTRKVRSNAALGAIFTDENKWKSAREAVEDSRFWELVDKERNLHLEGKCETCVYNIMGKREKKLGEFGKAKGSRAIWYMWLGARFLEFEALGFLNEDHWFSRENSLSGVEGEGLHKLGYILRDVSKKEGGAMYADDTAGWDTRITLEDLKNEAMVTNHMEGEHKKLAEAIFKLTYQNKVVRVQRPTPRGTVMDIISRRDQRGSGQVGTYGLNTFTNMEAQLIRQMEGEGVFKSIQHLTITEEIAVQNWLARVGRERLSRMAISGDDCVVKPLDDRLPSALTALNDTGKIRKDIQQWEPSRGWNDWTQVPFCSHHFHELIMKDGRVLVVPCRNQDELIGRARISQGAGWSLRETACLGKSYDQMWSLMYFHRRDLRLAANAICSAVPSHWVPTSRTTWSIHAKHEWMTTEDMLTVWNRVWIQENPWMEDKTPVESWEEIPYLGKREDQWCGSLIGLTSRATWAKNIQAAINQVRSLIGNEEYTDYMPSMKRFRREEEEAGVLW
# [4] = control 3'UTR Renilla luciferase suppression, dose response, counter-screen for Shn3 inhibitor project, cell-based, Clone20-Shn3RL, cherry-picked (AID 624133); type: functional
# [5] = system: Vero; assay: Vero cell cytotoxicity, cytotoxicity control for flavivirus capping enzyme inhibitors (AID 588742); type: functional; settings: Chlorocebus sabaeus
# [6] = target: Large T antigen (Simian virus 40, UniProt P03070); type: functional, Betapolyomavirus macacae;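 note: Confirmatory-stage PubChem screen for compounds that inhibit SV40 T antigen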
# Large T antigen, sequence (P03070 whole entry, the tested form may be a part): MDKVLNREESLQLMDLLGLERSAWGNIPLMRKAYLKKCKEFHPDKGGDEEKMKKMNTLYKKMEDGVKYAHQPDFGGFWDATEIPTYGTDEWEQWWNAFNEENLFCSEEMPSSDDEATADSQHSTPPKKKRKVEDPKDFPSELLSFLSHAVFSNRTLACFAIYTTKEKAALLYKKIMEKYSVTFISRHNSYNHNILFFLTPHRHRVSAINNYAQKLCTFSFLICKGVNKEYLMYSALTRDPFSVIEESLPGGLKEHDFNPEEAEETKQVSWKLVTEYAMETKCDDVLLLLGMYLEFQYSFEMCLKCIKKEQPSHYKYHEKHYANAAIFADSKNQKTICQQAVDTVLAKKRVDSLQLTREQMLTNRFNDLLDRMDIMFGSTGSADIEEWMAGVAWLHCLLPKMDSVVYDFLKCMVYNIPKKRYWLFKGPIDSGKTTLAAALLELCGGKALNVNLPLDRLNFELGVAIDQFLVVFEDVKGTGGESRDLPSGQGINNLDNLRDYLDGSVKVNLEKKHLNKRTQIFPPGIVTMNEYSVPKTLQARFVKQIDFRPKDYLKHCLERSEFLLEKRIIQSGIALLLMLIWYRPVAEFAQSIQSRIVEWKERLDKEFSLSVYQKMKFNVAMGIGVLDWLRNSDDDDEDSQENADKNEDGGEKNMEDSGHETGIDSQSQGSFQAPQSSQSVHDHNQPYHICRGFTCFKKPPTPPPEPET
# [7] = target: T1, Carboxy-terminal domain RNA polymerase II polypeptide A small phosphatase 1 (Homo sapiens, UniProt Q9GZU7); assay: inhibitors of CTDSP1, concentration-response testing, biochemical assay, absorbance-based, actives from ultra-high-throughput screening (AID 540297); type: functional
# T1 sequence (Q9GZU7 whole entry): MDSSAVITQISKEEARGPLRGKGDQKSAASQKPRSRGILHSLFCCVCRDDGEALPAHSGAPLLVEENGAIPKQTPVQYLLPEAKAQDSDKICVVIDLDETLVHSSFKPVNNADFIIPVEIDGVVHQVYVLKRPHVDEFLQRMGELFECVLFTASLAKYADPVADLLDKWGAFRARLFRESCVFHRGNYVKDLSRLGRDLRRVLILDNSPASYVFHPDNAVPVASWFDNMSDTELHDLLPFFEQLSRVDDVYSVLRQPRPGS
# [8] = microbe, parasite or virus in culture; type: functional; settings: Mycobacterium tuberculosis
# [9] = Luminescence Cell-Based Dose Confirmation HTS to Identify Activators of 5'UTR Stem-Loop Driven Alpha-Synuclein mRNA Translation in H4 Neuroglioblastoma Cells. [Related pubchem assays: 1829 (Project Summary), 1814 (Primary HTS)]; type: functional
# [10] = system: H4; assay: Luminescence Cell-Based Dose Response HTS to Identify Activators of 5'UTR Stem-Loop Driven Prion Protein mRNA Translation in H4 Neuroglioblastoma Cells. [Related pubchem assays: 1829 (Project Summary), 1814 (Primary HTS)]; type: functional; settings: Homo sapiens
# [11] = system: HEK293; assay: inhibitors of LMP1-driven NF-kB reporter, dose response, cell-based, HEK293, luciferase, cherry-pick (AID 588343); type: functional; settings: Homo sapiens
# [12] = target: Cytochrome P450 3A4 (Homo sapiens, UniProt P08684);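 note: CYP3A4 tested as one member of a cytochrome P450 panel screen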
# Cytochrome P450 3A4, sequence (P08684 whole entry): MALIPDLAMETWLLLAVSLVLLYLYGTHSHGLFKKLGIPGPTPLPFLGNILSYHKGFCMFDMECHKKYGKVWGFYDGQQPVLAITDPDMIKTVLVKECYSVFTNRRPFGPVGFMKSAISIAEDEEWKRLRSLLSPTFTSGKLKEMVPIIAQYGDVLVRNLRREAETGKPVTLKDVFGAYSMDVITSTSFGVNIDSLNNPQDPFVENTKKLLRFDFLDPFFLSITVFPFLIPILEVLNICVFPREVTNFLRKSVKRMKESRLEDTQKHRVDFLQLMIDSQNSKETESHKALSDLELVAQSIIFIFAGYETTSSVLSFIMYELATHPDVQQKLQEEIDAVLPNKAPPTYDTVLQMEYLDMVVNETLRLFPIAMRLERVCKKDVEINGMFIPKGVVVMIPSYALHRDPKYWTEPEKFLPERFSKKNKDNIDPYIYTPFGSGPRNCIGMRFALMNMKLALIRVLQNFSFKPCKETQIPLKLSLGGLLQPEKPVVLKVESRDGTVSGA
structure (smiles),measurement,setting,value
CCOC(=O)c1c2c(n(-c3ccc(OC)cc3)c1C)C(=O)C(=O)c1ccccc1-2,AC50,[1],3.15 µM (active)
same,AC50,[2],3.74 µM (active)
same,IC50,[3],47 µM (active)
same,AC50,[4],3 µM (active)
same,CC50,[5],2.89 µM (active)
C(=N\c1ccc(Nc2ccccc2)cc1)/c1ccc2ccccc2c1,IC50,[6],8.25 µM (active)
O=C(/C=C/c1ccco1)NCC(=O)N/N=C/c1ccc([N+](=O)[O-])cc1,IC50,[7],5.25 µM (active)
CC(C)(C)C1CCc2c(sc3nc(SCC(N)=O)nc(N)c23)C1 (centres undefined),CC50,[8],> 40 µM (active)
same,EC50,[9],27.3 µM (active)
same,EC50,[10],24.9 µM (active)
C/C(=N\NC(=O)c1ccccc1O)c1ccc(NC(=O)c2ccccc2)cc1,IC50,[7],7.56 µM (active)
Cc1nc2sc(C(N)=O)c(N)c2c2c1CCCC2,AC50,[11],10.9 µM (active)
CCOc1ccccc1N=C(S)N1CCN(c2ccc(O)cc2)CC1,IC50,[6],6.28 µM (active)
CC(=O)c1sc(C(=O)O)c(-c2ccco2)c1-c1ccco1,IC50,[7],15.5 µM (active)
O=S(=O)(c1ccccc1)N1CCN(c2cc(-c3ccccc3)nc3ncnn23)CC1,AC50,[12],14.1 µM (inconclusive)
same,AC50,[1],1.12 µM (active)
same,AC50,[2],48.1 µM (active)
same,AC50,[4],5.98 µM (active)
same,AC50,[11],3.23 µM (active)

# From ChEMBL document CHEMBL1201862, “PubChem BioAssay data set” (2004)
